# Measurements: publication PMC8765437, “GSK3640254 Is a Novel HIV-1 Maturation Inhibitor with an Optimized Virology Profile” (Antimicrobial Agents and Chemotherapy, 2022)
# Read-outs that look alike come from different tables or passages of the source.
# System: NLRepRlucP373S viruses containing Gag SDMs or gag/pr genes from clinical isolates
# Test: Multiple-cycle replication assay, NLRepRluc reporter viruses in MT-2 cells, luciferase endpoint
# Type: cell-based, HIV-1
# From the text: Multiple-cycle assays using recombinant viruses or clinical isolates were used to assess MI antiviral activity as described previously ([10]). pNLRepRlucP373S (the P373S change is in the Gag gene and converts an outlier polymorphism in the NL4-3 gene to the prevalent amino acid in the population) plasmids containing SDMs in Gag or gag/pr regions from clinical isolates were transfected into HEK 293T cells, and the supernatant containing recombinant virus was harvested after 4 to 5 days. Virus was used to infect MT-2 cells in the presence of a 3-fold serially diluted compound at a final dimethyl sulfoxide (DMSO) concentration of 1%. The inocula of the reporter viruses were determined based on the luciferase activity detected on day 4 postinfection. The MOI (ratio of infectious virions to target cells) of reporter-free laboratory strains and clinical isolates was 0.005, as derived from a tissue culture infectious dose study. Clinical isolates or reporter-free viruses were examined in the reporter CEM-NKR-CCR5-Luc cells or PBMCs at MOIs ranging from 0.005 to 0.01. Each infection started with a drug-free preincubation of the cell-virus mixtures, performed at 37°C and 5% CO2 for either 1 h at 2 times the final cell density (reporter viruses) or 1 h (reporter-free laboratory strains) or 3 h (clinical isolates) using cell pellets in 0.5 mL of medium. After preincubation, cell-virus mixtures were added to compound-containing 96-well plates for a final cell density of either 10,000 (MT-2 cells for reporter viruses), 20,000 (MT-2 and PM1 cells for reporter-free laboratory strains), 200,000 (PBMCs for clinical isolates), or 500,000 (CEM-NKR-CCR5-Luc for reporter-free laboratory strains) cells per well. The CEM-NKR-CCR5-Luc cell assay was performed in the presence of Polybrene (10 μg/mL). Virus growth was determined on days 4 to 5 postinfection for reporter variants or days 5 to 11 for the other viruses. The reporter viruses were detected by a luciferase assay according to manufacturer protocols (Brite-Glo luciferase kit [Promega] for CEM-NKR-CCR5-Luc cells and Dual-Luciferase Reporter 1000 assay system [Promega] for the other cells), and luminescence was detected on a Wallac Trilux. The growth of clinical isolates in PBMCs was quantitated by reverse transcriptase activity in a 96-well scintillation proximity assay (SPA). Twenty microliters of culture supernatants was mixed with 40 μL of reaction cocktail (62.5 mM Tris-HCl [pH 7.8], 100 mM KCl, 0.0625% NP-40, 2.5 mM dithiothreitol [DTT], 6.25 mM MgCl2, 1 mM EGTA, 6.25 μg/mL of poly rA, 2.5 μg/mL of streptavidin SPA beads prebound with biotinylated-dT12-18, and 1 μCi of [^3H]TTP). Mixtures were incubated at 37°C for ∼3 h and quenched with 100 μl of 0.25 M EDTA per well. Luminescence was detected on a Wallac Trilux programmed for tritium counting with SPA beads in opaque plates. The growth of the reporter-free laboratory M-tropic strains and clinical isolates was monitored by a p24 enzyme-linked immunosorbent assay (ELISA; PerkinElmer Life Sciences, Waltham, MA) performed on culture supernatants. […] A 1:1,000 dilution of cell supernatant in PBS was generally observed to fall in the dynamic range of the endpoint signal.
# Maximal percent inhibition values were calculated as MPI = 100 – (mean signals at the 2 highest concentrations of compound/mean signal of 2 no-drug control wells) × 100.
compound,measurement,setting,value
"C=C(C)[C@@H]1CC[C@]2(NCCN3CCS(=O)(=O)CC3)CC[C@]3(C)[C@H](CC[C@@H]4[C@@]5(C)CC=C(c6ccc(C(=O)O)cc6)C(C)(C)[C@@H]5CC[C@]43C)[C@@H]12 [GSK’795, reference compound]",MPI,A366V-containing viruses,−13 to 408%
same,EC50,"Human immunodeficiency virus 1, MT2, Table S1, SDM A326T/V362I/V370A",≥ 3000 nM
same,EC50,"Human immunodeficiency virus 1, MT2, Table S1, SDM S368R/V370A",2 nM
same,EC50,"Human immunodeficiency virus 1, MT2, Table S1, SDM T332S/V362I/PrR41G",700 nM
same,EC50,"Human immunodeficiency virus 1, MT2, Table S1, SDM V362I/V370A",≥ 3000 nM
same,EC50,"Human immunodeficiency virus 1, MT2, Table S1, SDM V370A",6 nM
same,EC50,"Human immunodeficiency virus 1, MT2, Table S1, SDM V370A/ΔT371",7 nM
same,EC50,"Human immunodeficiency virus 1, MT2, Table S1, SDM ΔV370",6 nM
same,EC50,"Human immunodeficiency virus 1, MT2, Table S1, subtype B SDM Wild-type (V, QVT)",5 nM
same,EC50,"Human immunodeficiency virus 1, MT2, read-out: EC50 (range), Subtype C gag/pr viruses, n=11",3 to 22 nM
same,EC50,"Human immunodeficiency virus 1, MT2, read-out: EC50 (range), V362I only viruses, n=9",3 to 54 nM
same,EC50,"Human immunodeficiency virus 1, MT2, read-out: EC50 (range), Wild-type subtype B, n=5",1 to 6 nM
same,EC50,"Human immunodeficiency virus 1, MT2, read-out: Mean ± SD EC50, A366V-containing viruses (A366V, V362I/A366V, V362I/A366V/V370M, A366V/V370M)",> 3000 nM
same,EC50,"Human immunodeficiency virus 1, MT2, read-out: Mean ± SD EC50, SDM A326T/V362I/V370A",> 3000 nM
same,EC50,"Human immunodeficiency virus 1, MT2, read-out: Mean ± SD EC50, SDM A364V",> 3000 nM
same,EC50,"Human immunodeficiency virus 1, MT2, read-out: Mean ± SD EC50, SDM R361K/V362I/L363M",552 ± 971 nM
same,EC50,"Human immunodeficiency virus 1, MT2, read-out: Mean ± SD EC50, SDM T332S/V362I/prR41G",704 ± 606 nM
same,EC50,"Human immunodeficiency virus 1, MT2, read-out: Mean ± SD EC50, SDM V362I/V370A",> 3000 nM
same,EC50,"Human immunodeficiency virus 1, MT2, read-out: Mean ± SD EC50, SDM V370A",6 nM
same,EC50,"Human immunodeficiency virus 1, MT2, read-out: Mean ± SD EC50, SDM Wild type",5 ± 3 nM
same,EC50,"Human immunodeficiency virus 1, MT2, read-out: Mean ± SD EC50, SDM ΔV370",6 ± 2 nM
same,EC50,"Human immunodeficiency virus 1, MT2, read-out: Mean ± SD EC50, Subtype B gag/pr viruses, n=24",66 nM
same,EC50,"Human immunodeficiency virus 1, MT2, read-out: Mean ± SD EC50, Subtype C gag/pr viruses, n=11",9.1 ± 5.6 nM
same,EC50,"Human immunodeficiency virus 1, MT2, read-out: Mean ± SD EC50, V362I only viruses, n=9",11.1 ± 16.3 nM
same,EC50,"Human immunodeficiency virus 1, MT2, read-out: Mean ± SD EC50, V362I/ΔV370 virus, n=1",1400 nM
same,EC50,"Human immunodeficiency virus 1, MT2, read-out: Mean ± SD EC50, Wild-type subtype B (V362, Q369, V370, T371), n=5",2.8 ± 2.5 nM
same,EC50,"Human immunodeficiency virus 1, MT2, read-out: Median EC50, Subtype B gag/pr viruses, n=24",5 nM
same,EC50,"Human immunodeficiency virus 1, MT2, read-out: Median EC50, Subtype C gag/pr viruses, n=11",7 nM
same,EC50,"Human immunodeficiency virus 1, MT2, read-out: Median EC50, V362I only viruses, n=9",5 nM
same,EC50,"Human immunodeficiency virus 1, MT2, read-out: Median EC50, Wild-type subtype B, n=5",1 nM
same,EC90,"Human immunodeficiency virus 1, MT2, read-out: PBA EC90, Table S1, SDM R361K/V362I/L363M",321000 nM
same,EC90,"Human immunodeficiency virus 1, MT2, read-out: PBA EC90, Table S1, SDM S368R/V370A",40 nM
same,EC90,"Human immunodeficiency virus 1, MT2, read-out: PBA EC90, Table S1, SDM T332S/V362I/PrR41G",422000 nM
same,EC90,"Human immunodeficiency virus 1, MT2, read-out: PBA EC90, Table S1, SDM V370A",50 nM
same,EC90,"Human immunodeficiency virus 1, MT2, read-out: PBA EC90, Table S1, SDM V370A/ΔT371",230 nM
same,EC90,"Human immunodeficiency virus 1, MT2, read-out: PBA EC90, Table S1, SDM ΔV370",1030 nM
same,EC90,"Human immunodeficiency virus 1, MT2, read-out: PBA EC90, Table S1, subtype B SDM Wild-type (V, QVT)",110 nM
same,EC90,"Human immunodeficiency virus 1, MT2, read-out: PBA EC90, subtype B gag/pr 4NRR (Wild-type)",70 nM
same,EC90,"Human immunodeficiency virus 1, MT2, read-out: PBA EC90, subtype B gag/pr 28-MDR (Wild-type)",100 nM
same,EC90,"Human immunodeficiency virus 1, MT2, read-out: PBA EC90, subtype B gag/pr 92BR014 (V370M)",370 nM
same,EC90,"Human immunodeficiency virus 1, MT2, read-out: PBA EC90, subtype B gag/pr 92BR018 (V, QAΔ)",970 nM
same,EC90,"Human immunodeficiency virus 1, MT2, read-out: PBA EC90, subtype B gag/pr 92TH014 (V362I)",670 nM
same,EC90,"Human immunodeficiency virus 1, MT2, read-out: PBA EC90, subtype B gag/pr 92TH026 (V362I)",210 nM
same,EC90,"Human immunodeficiency virus 1, MT2, read-out: PBA EC90, subtype B gag/pr 92US072 (V362I)",130 nM
same,EC90,"Human immunodeficiency virus 1, MT2, read-out: PBA EC90, subtype B gag/pr 92US729 (Wild-type)",70 nM
same,EC90,"Human immunodeficiency virus 1, MT2, read-out: PBA EC90, subtype B gag/pr 93BR008 (V362I)",120 nM
same,EC90,"Human immunodeficiency virus 1, MT2, read-out: PBA EC90, subtype B gag/pr 93BR009 (V370M)",130 nM
same,EC90,"Human immunodeficiency virus 1, MT2, read-out: PBA EC90, subtype B gag/pr 93BR017 (V, QAΔ)",600 nM
same,EC90,"Human immunodeficiency virus 1, MT2, read-out: PBA EC90, subtype B gag/pr 93BR022 (V, QAΔ)",630 nM
same,EC90,"Human immunodeficiency virus 1, MT2, read-out: PBA EC90, subtype B gag/pr 93TH0647 (V362I)",60 nM
same,EC90,"Human immunodeficiency virus 1, MT2, read-out: PBA EC90, subtype B gag/pr 93US141 (V362I)",250 nM
same,EC90,"Human immunodeficiency virus 1, MT2, read-out: PBA EC90, subtype B gag/pr 411-1-C (Wild-type)",40 nM
same,EC90,"Human immunodeficiency virus 1, MT2, read-out: PBA EC90, subtype B gag/pr 220162 (Wild-type)",600 nM
same,EC90,"Human immunodeficiency virus 1, MT2, read-out: PBA EC90, subtype B gag/pr 400024 (V370M)",79000 nM
same,EC90,"Human immunodeficiency virus 1, MT2, read-out: PBA EC90, subtype B gag/pr 400051 (V370A)",30 nM
same,EC90,"Human immunodeficiency virus 1, MT2, read-out: PBA EC90, subtype B gag/pr 1000038 (V362I/V370A)",977000 nM
